In patent publication US20250281497A1, “FUSED AMINO PYRIMIDINE COMPOUNDS FOR TREATMENT OF SEIZURE DISORDERS” (Ovid Therapeutics Inc., priority 2024, published 2025):

Tests used:
KCC3 = target: T1, KCC3 (Homo sapiens, UniProt Q9UHW9); assay: Tl+ assay, HEK-293 cells expressing KCC3; assay type: cell-based; settings: read-out: concentration at which effects on KCC3 were seen (EC50 chart FIG. 1G)
T1 construct: expressed in transfected cells; host or cells: HEK-293
T1 sequence (Q9UHW9 1-1150): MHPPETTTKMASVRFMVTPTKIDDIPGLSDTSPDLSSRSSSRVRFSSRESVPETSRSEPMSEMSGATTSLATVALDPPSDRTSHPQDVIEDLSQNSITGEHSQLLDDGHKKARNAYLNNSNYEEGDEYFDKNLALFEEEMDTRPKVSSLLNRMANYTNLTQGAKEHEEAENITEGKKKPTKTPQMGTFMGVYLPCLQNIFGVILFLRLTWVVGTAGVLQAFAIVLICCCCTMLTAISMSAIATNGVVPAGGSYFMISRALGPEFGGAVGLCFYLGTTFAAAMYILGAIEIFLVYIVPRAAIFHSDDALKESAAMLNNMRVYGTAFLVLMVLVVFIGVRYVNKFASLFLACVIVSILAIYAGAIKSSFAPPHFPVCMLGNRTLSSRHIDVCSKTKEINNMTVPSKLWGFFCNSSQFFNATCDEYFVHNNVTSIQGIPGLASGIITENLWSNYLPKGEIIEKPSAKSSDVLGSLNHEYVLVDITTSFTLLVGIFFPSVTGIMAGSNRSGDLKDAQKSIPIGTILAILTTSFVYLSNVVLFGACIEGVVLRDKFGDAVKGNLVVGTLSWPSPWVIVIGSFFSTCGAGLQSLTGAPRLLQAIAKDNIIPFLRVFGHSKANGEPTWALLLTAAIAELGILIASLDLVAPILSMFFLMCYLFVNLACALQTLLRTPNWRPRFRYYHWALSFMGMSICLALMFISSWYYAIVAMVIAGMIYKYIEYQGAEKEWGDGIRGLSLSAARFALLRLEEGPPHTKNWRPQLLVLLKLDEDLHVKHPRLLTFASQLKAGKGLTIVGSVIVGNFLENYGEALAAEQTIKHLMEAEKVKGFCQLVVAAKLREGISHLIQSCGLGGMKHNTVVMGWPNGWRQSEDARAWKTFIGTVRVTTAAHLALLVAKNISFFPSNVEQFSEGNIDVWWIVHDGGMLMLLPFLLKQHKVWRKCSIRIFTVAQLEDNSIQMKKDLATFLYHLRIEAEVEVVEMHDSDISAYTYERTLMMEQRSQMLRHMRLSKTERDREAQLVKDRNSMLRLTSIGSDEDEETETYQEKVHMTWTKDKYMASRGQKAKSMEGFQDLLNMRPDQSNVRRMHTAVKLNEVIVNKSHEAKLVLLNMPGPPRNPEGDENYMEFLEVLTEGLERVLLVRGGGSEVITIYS
Description: (§1) FLIPR TI Flux assay. HEK-293 cells were washed with HBSS, and then incubated with loading buffer containing TI sensitive fluorescent dye (https://www.moleculardevices.com), 20 μM bumetanide 20 μM ouabain and 2.5 mM probenecid for 1 h at room temperature (RT) under control conditions or with drugs in the dark using a FlexStation 3 microplate reader (Molecular Devices) and imaged […] for 30 min. Stimulus buffer was added containing 5 mM K^+/0.5 mM Tl^+ and cells were imaged every 1.5 over a 190 second time course The initial rate Tl^+ uptake (Relative Fluorescence Units (RFU) per second) was determined following addition of the stimulus buffer as outlined previously (Conway et at, 2017, supra) (Lee et at, 2022, supra).
(§2) Several studies have shown that the activity and plasma membrane accumulation of KCC2 is potentiated via phosphorylation of S940, a process mediated by the activity of protein kinase C and protein phosphatase 1 (Lee et al., 2011, supra; Lee et al., J Biol Chem 282, 29777-29784 (2007); Moore et al., Proc. Natl. Acad. Sci. U.S.A. 115, 10166-10171 (2018); Moore et al., Trends Neurosci. 40, 555-571 (2017); Silayeva et al., Proc. Natl. Acad. Sci. U.S.A. 112, 3523-3528 (2015)). […] Compared to KCC2, effects on KCC3, KCC4, and NKCC1 were only seen at concentrations more than 35-fold that of KCC2 (>100 μM) (FIG. 1G).

NKCC1 = target: T2, NKCC1 (Homo sapiens, UniProt P55011); assay: Tl+ assay, HEK-293 cells expressing NKCC1; assay type: cell-based; settings: read-out: concentration at which effects on NKCC1 were seen (EC50 chart FIG. 1G)
T2 construct: expressed in transfected cells; host or cells: HEK-293
T2 sequence (P55011 1-1212): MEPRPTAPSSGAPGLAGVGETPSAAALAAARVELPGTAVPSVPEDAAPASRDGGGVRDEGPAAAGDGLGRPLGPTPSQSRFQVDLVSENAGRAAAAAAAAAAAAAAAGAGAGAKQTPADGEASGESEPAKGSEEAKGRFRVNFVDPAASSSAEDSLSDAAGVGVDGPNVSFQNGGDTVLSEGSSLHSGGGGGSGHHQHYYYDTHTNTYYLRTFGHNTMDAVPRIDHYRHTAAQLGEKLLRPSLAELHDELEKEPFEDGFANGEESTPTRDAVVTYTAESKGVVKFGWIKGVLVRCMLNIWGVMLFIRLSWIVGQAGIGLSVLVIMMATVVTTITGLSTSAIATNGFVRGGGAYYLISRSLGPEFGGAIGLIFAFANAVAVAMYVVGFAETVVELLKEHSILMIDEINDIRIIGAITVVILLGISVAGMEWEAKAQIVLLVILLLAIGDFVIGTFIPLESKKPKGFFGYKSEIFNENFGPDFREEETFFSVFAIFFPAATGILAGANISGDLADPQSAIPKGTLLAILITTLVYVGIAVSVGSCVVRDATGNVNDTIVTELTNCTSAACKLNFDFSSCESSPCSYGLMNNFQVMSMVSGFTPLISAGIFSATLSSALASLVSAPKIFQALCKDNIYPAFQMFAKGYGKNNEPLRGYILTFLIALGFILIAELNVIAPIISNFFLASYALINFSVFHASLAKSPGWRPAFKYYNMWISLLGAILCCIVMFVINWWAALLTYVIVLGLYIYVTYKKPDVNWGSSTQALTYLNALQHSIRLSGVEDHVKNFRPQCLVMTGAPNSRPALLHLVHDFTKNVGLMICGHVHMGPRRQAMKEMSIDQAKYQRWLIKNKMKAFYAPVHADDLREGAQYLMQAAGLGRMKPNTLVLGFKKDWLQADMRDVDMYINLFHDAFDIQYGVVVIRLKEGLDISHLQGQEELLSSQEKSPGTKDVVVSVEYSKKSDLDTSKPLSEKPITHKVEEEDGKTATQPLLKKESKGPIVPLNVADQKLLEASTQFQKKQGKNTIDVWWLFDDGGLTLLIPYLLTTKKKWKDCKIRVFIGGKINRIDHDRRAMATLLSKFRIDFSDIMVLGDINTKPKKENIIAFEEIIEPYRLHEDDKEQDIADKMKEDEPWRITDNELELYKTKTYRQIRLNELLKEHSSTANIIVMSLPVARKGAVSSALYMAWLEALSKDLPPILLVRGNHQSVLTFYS
Description: as §1, §2

**Q.** For `C[C@@H]1CN(c2nc3c(c(Nc4ccc(C5CCCCC5)cc4)n2)COC3)CCO1` [Compound A, (R)—N-(4-cyclohexylphenyl)-2-(2-methylmorpholino)-5,7-dihydrofuro[3,4-d]pyrimidin-4-amine], which EC50 (KCC3) is on record?
**A.** > 100 µM

**Q.** And the EC50 (NKCC1)?
**A.** > 100 µM
